In patent US7919493B2, “Anititumoral ecteinascidin derivatives” (Pharma Mar, S.A., priority 2001, dated 2011):

Legend:
Type in all cases: cell-based
A549 = experiment: Cytotoxic assay, sulforhodamine B (SRB), A549; conditions: Homo sapiens; A549 cells, 48 hours exposure, SRB method
Source text: (§1) A colorimetric type of assay, using sulforhodamine B (SRB) reaction has been adapted for a quantitative measurement of cell growth and viability (following the technique described by Skehan P et al. J. Natl. Cancer Inst. 1990, 82, 1107-1112).
(§2) This form of assay employs 96-well cell culture microplates of 9 mm diameter (Faircloth et al. Methods in cell science, 1988, 11(4), 201-205; Mosmann et al, Journal of. Immunological. Methods, 1983, 65(1-2), 55-63). Most of the cell lines are obtained from American Type Culture Collection (ATCC) derived from different human cancer types. Cells are maintained in RPMI 1640 10% FBS, supplemented with 0.1 g/L penicillin and 0.1 g/l streptomycin sulfate and then incubated at 37° C., 5% CO2 and 98% humidity. For the experiments, cells were harvested from subconfluent cultures using trypsin and resuspended in fresh medium before counting and plating.
(§3) Cells were seeded in 96 well microtiter plates at 5×10^3 cells per well in aliquots of 195 μL medium, and allowed to attach to the plate surface for 18 hours in drug free medium. Afterwards, samples are in aliquots of 5 μL in a ranging from 10 to 10-8 μg/mL dissolved in DMSO/ETOH (0.2% in PS buffer). After 48 hours exposure, the antitumor effect are measured by the SRB method: cells are fixed by adding 50 μL of cold 50% (w/v) trichloroacetic acid and incubating for 60 minutes at 4° C. Plates are washed with deionised water and dried. 100 μL of SRB solution (0.4% w/v in 1% acetic acid) is added to each microtiter well and incubated for 10 minutes at room temperature. Unbound SRB is removed by washing with 1% acetic acid. Plates are air-dried and bound stain is solubilized with Tris Buffer. Optical densities are read on an automated spectrophotometric plate reader at a single wavelength of 490 nm.
(§4) The values for mean ±SD of data from triplicate wells are calculated. GI50 (concentration that produces 50% growth inhibition) parameter was calculated (NCI algorithm) by automatic interpolation.

HT29 = experiment: Cytotoxic assay, sulforhodamine B (SRB), HT29; conditions: Homo sapiens, HT-29; HT29 cells, 48 hours exposure, SRB method
Source text: as §1, §2, §3, §4

MEL-28 = experiment: Cytotoxic assay, sulforhodamine B (SRB), MEL-28; conditions: Homo sapiens, SK-MEL-28; MEL-28 cells, 48 hours exposure, SRB method
Source text: as §1, §2, §3, §4

DU-14S = experiment: Cytotoxic assay, sulforhodamine B (SRB), DU-14S; conditions: Homo sapiens; DU-14S cells, 48 hours exposure, SRB method
Source text: as §1, §2, §3, §4

COc1c(C)cc2c(c1O)[C@@H]1[C@@H]3[C@@H]4SC[C@H](NC(=O)c5cc6ccccc6oc5=O)C(=O)OC[C@@H](c5c6c(c(C)c(OC(C)=O)c54)OCO6)N3[C@@H](C#N)[C@H](C2)N1C [Compound 15a]
GI50 (A549): 2.83 nM
GI50 (HT29): 4.38 nM
GI50 (MEL-28): 3.23 nM
GI50 (DU-14S): 4.38 nM

COc1c(C)cc2c(c1O)[C@@H]1[C@@H]3[C@@H]4SC[C@H](NC(=O)c5cccnc5Cl)C(=O)OC[C@@H](c5c6c(c(C)c(OC(C)=O)c54)OCO6)N3[C@@H](C#N)[C@H](C2)N1C [Compound 15c]
GI50 (A549): 1.8 nM
GI50 (HT29): 2.93 nM
GI50 (MEL-28): 1.21 nM
GI50 (DU-14S): 0.468 nM

COc1c(C)cc2c(c1O)[C@@H]1[C@@H]3[C@@H]4SC[C@H](NC(=O)c5cc(C)on5)C(=O)OC[C@@H](c5c6c(c(C)c(OC(C)=O)c54)OCO6)N3[C@@H](C#N)[C@H](C2)N1C [Compound 15e]
GI50 (A549): 5.77 nM
GI50 (HT29): 5.36 nM
GI50 (MEL-28): 2.58 nM
GI50 (DU-14S): 3.84 nM

COc1c(C)cc2c(c1O)[C@@H]1[C@@H]3[C@@H]4SC[C@H](NC(=O)c5cc6ccccc6oc5=O)C(=O)OC[C@@H](c5c6c(c(C)c(OC(C)=O)c54)OCO6)N3[C@@H](O)[C@H](C2)N1C [Compound 16a]
GI50 (A549): 2.94 nM
GI50 (HT29): 3.94 nM
GI50 (MEL-28): 3.02 nM
GI50 (DU-14S): 4.73 nM

COc1c(C)cc2c(c1O)[C@@H]1[C@@H]3[C@@H]4SC[C@H](NC(=O)[C@@H]5CCCN5C(=O)OC(C)(C)C)C(=O)OC[C@@H](c5c6c(c(C)c(OC(C)=O)c54)OCO6)N3[C@@H](O)[C@H](C2)N1C [Compound 16b]
GI50 (A549): 1.23 nM
GI50 (HT29): 1.23 nM
GI50 (MEL-28): 1.11 nM
GI50 (DU-14S): 0.37 nM

COc1c(C)cc2c(c1O)[C@@H]1[C@@H]3[C@@H]4SC[C@H](NC(=O)[C@@H]5CCCN5)C(=O)OC[C@@H](c5c6c(c(C)c(OC(C)=O)c54)OCO6)N3[C@@H](O)[C@H](C2)N1C [Compound 16c]
GI50 (A549): 5.63 nM
GI50 (HT29): 0.0422 nM
GI50 (MEL-28): 0.281 nM
GI50 (DU-14S): 1.13 nM

COc1c(C)cc2c(c1O)[C@@H]1[C@@H]3[C@@H]4SC[C@H](NC(=O)c5cccnc5Cl)C(=O)OC[C@@H](c5c6c(c(C)c(OC(C)=O)c54)OCO6)N3[C@@H](O)[C@H](C2)N1C [Compound 16d]
GI50 (A549): 1330 nM
GI50 (HT29): 13300 nM
GI50 (MEL-28): 2.5 nM
GI50 (DU-14S): 2.16 nM

COc1c(C)cc2c(c1O)[C@@H]1[C@@H]3[C@@H]4SC[C@H](NC(=O)c5cnn(-c6ccccc6)c5C(F)(F)F)C(=O)OC[C@@H](c5c6c(c(C)c(OC(C)=O)c54)OCO6)N3[C@@H](O)[C@H](C2)N1C [Compound 16e]
GI50 (A549): 35.1 nM
GI50 (HT29): 38.6 nM
GI50 (MEL-28): 29.8 nM
GI50 (DU-14S): 27.2 nM

COc1c(C)cc2c(c1O)[C@@H]1[C@@H]3[C@@H]4SC[C@H](NC(=O)c5cc(C)on5)C(=O)OC[C@@H](c5c6c(c(C)c(OC(C)=O)c54)OCO6)N3[C@@H](O)[C@H](C2)N1C [Compound 16f]
GI50 (A549): 3.47 nM
GI50 (HT29): 4.3 nM
GI50 (MEL-28): 5.13 nM
GI50 (DU-14S): 3.4 nM
